From US20230101403A1, “METHOD OF TREATING OR AMELIORATING CANCERS DRIVEN BY RECEPTOR TYROSINE KINASE FUSION ONCOGENES, AND COMPOSITIONS FOR THE SAME” (THE TRUSTEES OF THE UNIVERSITY OF PENNSYLVANIA, priority 2021, published 2023)

Assays:
[1] = tested on: STE-1 cells; assay: caspase-3 activity reporter (Nucview) in STE-1; assay type: cell-based; details: for killing over untreated cells, single agent: 24 hr
Description: (§1) FIG. 6C depicts the quantification of death in STE-1 cells following 24 hrs of inhibitor treatment. FIG. 6D depicts the number of Erk pulses in cells that died (“D”) and cells that lived (“L”) during 24 hrs of inhibitor treatment. FIG. 6E depicts the percentage of caspase-3+ STE-1 and H3122 cells following 24 hrs of inhibitor treatment.
Percent of Caspase-3 positive cells assessed using NucView 488 afterfive days of treatment with the indicated inhibitors: Alecitinib 1 μM, Erlotinib 1 μM, Marimastat 10 μM.

[2] = tested on: Erk activity, STE-1 cells; assay: live cell imaging of Erk kinase translocation reporter (ErkKTR); assay type: cell-based; details: for effect on ErkKTR: Erk activity and reactivation pulses: crizotinib 1 μM, erlotinib 1 μM, marimastat 10 μM
Description: (§2) Error bars represent 95% confidence intervals. […] FIG. 4I depicts the comparison of EGR1 expression after 6 hr of inhibitor treatment. […] FIG. 5B is the schematic of spatial analysis of Erk signaling in relation to dying cells. Cells within a 32 μm radius of a dying cell were considered neighbors of the dying cell, whereas all other cells were non-neighbors. Neighbors/non-neighbors were identified and tracked for 50 min before the death event, and Erk actvity in these cells was quantified. FIG. 5C depicts the quantification of Erk activity pulses in neighbors (“N”) or non-neighbors (“R”) of each cell-death event in the indicated conditions.
To further understand Erk reactivation, the present study observed Erk activity using live cell imaging of the Erk kinase translocation reporter (ErkKTR) in STE-1 cells (FIG. 4A). ErkKTR is a fluorescence reporter whose localization corresponds with Erk activity: the nuclear localization of ErkKTR indicates low activity of Erk while the cytoplasmic localization indicates high activity of Erk.

[3] = tested on: H3122 cells; assay: caspase-3 activity reporter (Nucview) in H3122; assay type: cell-based; details: for killing over untreated cells, single agent: 24 hr
Excerpt: as §1

[4] = tested on: EGR1, STE-1 cells; assay: EGR1 expression in individual cells after drug treatment; assay type: cell-based
Description: as §2

[5] = tested on: ppErk, H3122 cells; assay: EGF-induced ppErk induction in H3122 cells; assay type: cell-based; details: 100 ng/mL EGF, pre-treatment 1 μM
Description: Data points represent mean single cell ppErk intensity of three replicates.
(§3) To determine whether such negative regulation could be observed in the context of native epidermal growth factor receptor (EGFR) signaling, the present study measured ppErk induction upon addition of epidermal growth factor (EGF) in STE-1 and H3122 cells, two NSCLC cell lines driven by EML4-ALK(V1) (FIG. 2A).
(§4) To determine whether the mechanism was predominantly transcriptional or post-translational, the required duration of ALKi pre-incubation to observe an increase in dynamic range was examined. both STE-1 and H3122 cells were preincubated with varying durations of ALK inhibition, and ppErk levels in response to 15 min of EGF stimulation was analyzed.

[6] = tested on: ppErk, STE-1 and H3122 cancer cells; assay: single-cell ppErk levels as a function of treatment duration; assay type: cell-based; details: serum-starved
Excerpt: The present study sought to understand whether relief of EGFR inhibition by EML4-ALK might lead to Erk reactivation in STE-1 and H3122 cancer cells. […] The present study thus further examined Erk reactivation under ALK inhibition combined with marimastat, an inhibitor for matrix metalloproteases that are required for shedding EGF family ligands prior to paracrine signaling.

[7] = tested on: Erk activity, STE-1 cells
Description: as §2
The present study next sought to determine the source of the paracrine signals. […] Signal activation near dying cells was quantified by first identifying the time and location of each cell death event. All cells that were within a 100-pixel radius (˜32 μm, or about a 2-cell radius) of the dying cell for the 50 minutes preceding death were then identified. The present study refers to these as the “neighbors” of the dying cell (FIG. 5B). The present study then counted Erk pulses in the neighbors of a death event and compared to Erk pulses from a randomly selected subset of non-neighbors over that same time interval.

[8] = tested on: ppErk, STE-1 cells; assay: EGF-induced ppErk induction in STE-1 cells; details: 100 ng/mL EGF, pre-treatment 1 μM
Description: Data points represent mean single cell ppErk intensity of three replicates. FIG. 2C depicts the quantification of dynamic range of ppErk induction from experiment in 2C performed over a range of EGF concentrations. […] FIG. 2E depicts the ppErk immunofluoresence intensity response to 50 ng/mL EGF stimulation.
as §3, §4

[9] = tested on: ppErk, STE-1 cells expressing optoFGFR; assay: functional profiling: optoFGFR blue light stimulation, single-cell ppErk immunofluorescence; assay type: cell-based; details: STE-1 optoFGFR
Excerpt: FIG. 1A illustrates that EML4-ALK+ cancer cells treated with ALK specific tyrosine kinase inhibitor (TKI) often result in a population of persistent/tolerant cells that later develop into resistant colonies. […] FIG. 1C, left panel, illustrates that transmembrane RTK and EML4-ALK protein granules both signal through the same adapter proteins and downstream pathways like Ras/Erk. FIG. 1C, right panel, illustrates the functional profiling method used in determining the extent to which EML4-ALK expression or its inhibition alter signal transmission in cancer cells. FIG. 1D illustrates that optoFGFR allows for blue light stimulation of RTK (optoFGFR) signal transduction. […] FIG. 1F depicts the normalized ppErk fold-change in response to 5 min of blue light stimulation. Blue light intensity ranged from 2% to 60% of maximum (1.45 W/cm^2). Datapoints show mean single-cell ppErk intensity from three replicates.
A method called functional profiling that allows the measurement of how oncogenes and targeted therapies can alter signal transmission was developed. In functional profiling, light-activated ‘optogenetic’ signaling stimuli are apply at specific nodes of a signaling pathway and downstream signals, transcription, and cell fate as a function of oncogene or drug status are observe.
To determine whether EML4-ALK could alter RTK signal transmission properties, a light-sensitive fibroblast growth factor receptor (optoFGFR) was expressed in the STE-1 cancer cell line, which is driven by the EML4-ALK(V1) oncogene. The present study observed signal transmission by applying blue light stimuli and measuring single-cell phospho-Erk levels single-cell immunofluorescence (FIG. 1D). In STE-1 cells, optoFGFR induced only mild double-phosphorylated Erk (ppErk) signal increase above the high basal ppErk levels attributed to active EML4-ALK (FIG. 1E, top). […] Signal dynamic range increased due to lowering of tonic Erk activity from ALK, as well as from an increase in the maximum signal achievable relative to untreated cells. […]

[10] = tested on: STE-1 cells; assay: cell death in cells imaged over 24 hrs; assay type: cell-based

SMILES	killing over untreated cells, single agent [1]	effect on ErkKTR: Erk activity and reactivation pulses [2]	killing over untreated cells, single agent [3]	time EGR1 levels remained low [4]	EGR1 expression (EGR1-high population) ([4]; crizotinib 1 μM, erlotinib 1 μM)	ppErk dynamic range in response to EGF [5]	caspase-3-positive cell fraction ([1]; first 24 hr of treatment) [%]	time to reappearance of ERK-hi cells [6] [h]	time within which mean Erk levels decreased dramatically [6] [min]	median Erk pulses per cell, neighbors of a death ([7]; 50 minutes preceding death, within ~32 μm) [pulses per cell]	proportion of neighbor cells with at least 1 pulse preceding a death event ([7]; neighbors) [%]	proportion of non-neighbor cells with at least 1 pulse preceding a death event ([7]; non-neighbors) [%]	ErkKTR localization upon treatment ([2]; 1 μM)	ppErk dynamic range in response to EGF [8]	dynamic range of signal induction (ppErk) ([9]; blue light, pre-treatment 1 μM) [fold]	light stimulation at which increase of dynamic range could be observed ([9]; 1 μM)	dynamic range plateau (induction) at the highest light levels ([9]; 1 μM, highest levels of light stimulation) [fold]	Erk pulses in surviving cells compared to cells that died ([10]; 24 hrs)	cell death, % of cells analyzed ([10]; imaged over 24 hrs) [%]	caspase-3-positive cell fraction ([3]; first 24 hr of treatment) [%]
CNC(=O)[C@@H](NC(=O)[C@H](CC(C)C)[C@H](O)C(=O)NO)C(C)(C)C [marimastat]	Neither erlotinib or marimastat treatment alone showed enhanced killing over untreated cells	no obvious effect on ErkKTR	Neither erlotinib or marimastat treatment alone showed enhanced killing over untreated cells																	
C[C@@H](Oc1cc(-c2cnn(C3CCNCC3)c2)cnc1N)c1c(Cl)ccc(F)c1Cl [crizotinib]				at least 2 hrs	a distinct peak of EGR1-high cells appeared and grew at 4 and 6 hrs after drug treatment	dramatic increase in ppErk dynamic range	25	≤ 1	≤ 10	0.23	60	20	induced rapid nuclear translocation of ErkKTR in all cells	dramatic increase in ppErk dynamic range	~18	≤ 5 % maximal light stimulation	~25	surviving cells showed an increased number of Erk pulses compared to cells that died	~40	5
C#Cc1cccc(Nc2ncnc3cc(OCCOC)c(OCCOC)cc23)c1 [erlotinib]	Neither erlotinib or marimastat treatment alone showed enhanced killing over untreated cells	no obvious effect on ErkKTR	Neither erlotinib or marimastat treatment alone showed enhanced killing over untreated cells																	
